The record followed here is patent US6730665B1, “Treatment of bone cancer” (Mayo Foundation for Medical Education and Research, priority 1999, dated 2004).

Structures are written as SMILES.

Assay [1] relates to female Fisher 344 rats. In words: Cortical bone histomorphometry of rat tibia after oral 2ME. In kind it is in vivo. The note with it: 100 mg/kg/day oral gavage 13 days, mean ± SE. Here is the method:
All studies were approved by the Institutional Animal Care and Use Committee of the Mayo Clinic, Rochester, Minn. Rats were kept in plastic cages (3 per cage) under standard conditions of a 12 hr dark and 12 hr light cycle with food (Purina Laboratory rodent diet 5001, Ralston-Purina, St. Louis, Mo.) and water ad libitum. Rooms were maintained at a temperature of 24° C.
Fluorochromes were given […] tail vein.
Bone histomorphometry Histomorphometric measurements were performed with the OsteoMeasure Analysis System (OsteoMetrics, Atlanta, Ga.), which consisted of a Pentium 1133 computer coupled to a photomicroscope and image analysis system. […] The region of interest was traced, and the line lengths and area bounded by lines were calculated automatically.
Cortical bone measurements Ground transverse sections, cut at a site just proximal to the tibia-fibula synostosis, were prepared for histomorphometric analysis of cortical bone as described by Merriam, G. R. et al., Steroids, 1980, 136: 1-11. The following values were obtained as described by Turner, R. T. et al., Endocrinology, 1998, 139:3712-3720: 1) cross-sectional bone area; 2) medullary area: 3) cortical bone area: 4) periosteal perimeter; 5) endocortical perimeter; 6) periosteal bone formation rate, calculated as the area of bone between the declomycin label given at the start of the experiment and periosteal perimeter divided by the post-labeling period of 11 days; 7) periosteal mineral apposition rate, an index of osteoblast activity which is calculated as the periosteal bone formation rate divided by the label perimeter; and 8) periosteal label perimeter, an index of osteoblast number, defined as the periosteal perimeter labeled with calcein.
Statistical Analvses All values are expressed as mean±standard error (SE). Significant differences between groups were determined by Fisher's Protected Least Significant Difference post hoc test for multiple group comparisons following detection of significance by 1-way ANOVA. Significance was considered at p values ≦0.05.

Assay [2] deals with MG63 human osteosarcoma cells. Nature of the assay: Cell survival, viable cell count with trypan blue. The settings on record: for cell death: 72 hrs. The class given is cell-based. As to the method: (§1) MG63 and TE85 human osteosarcoma cells, and ROS 17/2.8 rat osteosarcoma cells were grown in DMEM/F12 phenol-red free medium containing 10% charcoal-stripped fetal bovine serum (FBS) and supplemented with 100 units/ml penicillin, 100 μg/ml streptomycin. Cell were incubated at 37° C. under 5% CO2 in air. Cells were plated at 5×10^4 cells per well into 24 well plates containing 1 ml of medium per well. After allowing the cells to attach overnight, media in the wells were replaced with fresh 1 ml medium. Human fetal osteoblasts (hFOB) cells and hFOB cells overexpressing estrogen receptor-alpha (hFOB-ERα) and estrogen receptor-beta (hFOB-ERβ) were grown in DMEM/F12 medium containing FBS, penicillin, streptomycin and Geneticin (300 μg/mL). The laboratory of Dr. B. L. Riggs at Mayo Clinic provided primary human osteoblast (HOB) cells. HOB cells were basically established from cancellous bone obtained as waste from orthopedic procedures and cultured as explants to generate the osteoblast-like monolayers as described by Borke et al., J. Clin. Endocrinol. Metab., 1988, 67:1299-1304. Human FOB cells and hFOB cells stably transfected with estrogen receptors (ERs) were maintained at 34° C., while all other cells were incubated at 37° C. under 5% CO2 in air.
(§2) Estrogen metabolites were diluted 1000 fold to give the final required concentrations in each well, and maintained for 72 hrs. The metabolites 2ME, 2OHE, and E2 were purchased from Sigma Chemical Company (St. Louis, Mo.). Stock solutions for each metabolite were made in 95% ethanol. Cell growth was measured by taking the viable cell count. At the end of metabolite treatment, cells were harvested, stained with trypan blue, and counted under a light microscope.
MG63 cells were treated with 0, 2, and 10 μM concentrations of 2ME in the presence or absence of 100 nM ICI for 72 hours. The cells were harvested and the viable cell counts were taken after staining with trypan blue.

The subject of assay [3] is Human fetal osteoblasts (hFOB) cells. Nature of the assay: Cell survival, viable cell count with trypan blue. The class given is cell-based. The note with it: 2 μM, 72 h. Here is the method: as §1, §2
Assay [4] deals with ROS 17/2.8 rat osteosarcoma cells. In words: Cell survival, viable cell count with trypan blue. The class given is cell-based. The settings on record: 2 μM, 72 h. As to the method:
as §1, §2

Assay [5] has as its system TE85 human osteosarcoma cells. Nature of the assay: Cell survival, viable cell count with trypan blue. The class given is cell-based. The settings on record: 2 μM, 72 h. As to the method:
as §1, §2

Assay [6] relates to primary human osteoblast (HOB) cells. Nature of the assay: Cell survival, viable cell count with trypan blue. The class given is cell-based. As to the method:
as §1, §2

With `COc1cc2c(cc1O)CC[C@@H]1[C@@H]2CC[C@]2(C)[C@@H](O)CC[C@@H]12` [2ME, 2-methoxyestradiol], in assay [1] (cortical (periosteal) bone), the “Bone Formation Rate” value is 5.32 ± 0.47 mm^2 × 10^−3/day and the “Mineral Apposition Rate” value stood at 1.34 ± 0.06 μm/day. Further, in assay [1] (cortical bone, tibia), the “Cortical Area” value was determined as 2.28 ± 0.03, the Cross-sectional area is recorded as 2.98 ± 0.04 mm^2 and the “Medullary Area” value worked out at 0.70 ± 0.02 mm^2. The compound also returned a cell survival rate in assay [2] (2 μM, 72 h) of 21%. The “reduction of MG63 cell survival” value in assay [2] (2 μM, 72 hours) is on record as “approximately 80%”. Moreover, the cell death result in assay [2] (20 μM) was “about 95%”. In assay [2] (50 μM), the cell death is on record as roughly 100%. Besides, the “cell numbers reduced to” value in assay [3] is reported as 15%. Besides, the “cell numbers reduced to” value in assay [4] was determined as 19%. For the same compound, in assay [5], the cell survival rate was 9%. Further, the “growth of normal osteoblasts (in words)” value in assay [6] is recorded as “not affected”. The same compound showed a survival in assay [6] (2 μM, 72 h) of 89%.
